The source of these data is patent publication US20140088069A1, “NOVEL ANTIBACTERIAL COMBINATION THERAPY” (priority 2011, published 2014).

Molecules are shown by their SMILES. Like-named read-outs stand apart in the source and are kept apart here. Bounds are passed on as bounds.

Type in all cases: cell-based, Staphylococcus aureus
One assay concerns CA-MRSA USA400/MW2. As to the kind of experiment: Checkerboard (FIC) analysis, CA-MRSA USA400/MW2.
In the next assay the test system is HA-MRSA USA200/EMRSA16. The assay is described as follows: Checkerboard (FIC) analysis, HA-MRSA USA200/EMRSA16.
For another assay, the system named is HA-MRSA USA600. The assay is described as follows: Checkerboard (FIC) analysis, HA-MRSA USA600.
The test system of assay [1] is S. aureus (Newman strain). As to the kind of experiment: Checkerboard (FIC) analysis against S. aureus Newman.
A further assay concerns CA-MRSA USA300. The assay is described as follows: Checkerboard (FIC) analysis against CA-MRSA USA300. The settings on record: for MIC: Staphylococcus aureus. The method, then: Here a matrix of drug concentrations were tested in combinations at the concentrations shown (μg/mL). Greyscale indicates growth—darker is more growth, lighter is less growth. FIC index is a measure of synergy and is calculated as follows: FIC index=FIC (cefuroxime)+FIC (drug compound).
The combination of ticlopidine and cefuroxime was further tested as above against a variety of S. aureus strains as shown in Table 1 below.
FIC index=FIC (β-lactam)+FTC (ticlopidine). […]

A further assay deals with HA-MRSA USA500. As to the kind of experiment: Checkerboard (FIC) analysis, HA-MRSA USA500.
In another assay the test system is HA-MRSA EMRSA15. As to the kind of experiment: Checkerboard (FIC) analysis, HA-MRSA EMRSA15.
Assay [2] relates to HA-MRSA. As to the kind of experiment: Checkerboard (FIC) analysis, HA-MRSA (Table 1 r13).
Description: (§1) Here a matrix of drug concentrations were tested in combinations at the concentrations shown (μg/mL). […] FIC index is a measure of synergy and is calculated as follows: FIC index=FIC (cefuroxime)+FIC (drug compound).
Another assay concerns HA-MRSA USA100/800/NY. The assay is described as follows: Checkerboard (FIC) analysis, HA-MRSA USA100/800/NY.
The subject of a further assay is SA178R1. The assay is described as follows: Checkerboard (FIC) analysis, SA178R1.
In the next assay the test system is RN4220. The assay is described as follows: Checkerboard (FIC) analysis, RN4220. The settings on record: in the presence of ticlopidine.
The test system of assay [3] is HA-MRSA. As to the kind of experiment: Checkerboard (FIC) analysis, HA-MRSA (Table 1 r10).
In assay [4] the test system is HA-MRSA. As to the kind of experiment: Checkerboard (FIC) analysis, HA-MRSA (Table 1 r16).
Another assay deals with MRSA. The assay is described as follows: Analogues in combination with cefuroxime against MRSA (FIC index). The settings on record: compound in combination with cefuroxime; MRSA (Table 5). The method, then: A series of analogues were synthesized (as shown in Table 5) in which the thienopyridine ring was removed.
These were tested in combination with cefuroxime against MRSA and results are shown below (Table 6).

The mark [5] stands for this setting: Staphylococcus aureus, cefuroxime alone, read-out: MIC cefuroxime.

Description for RN4220: as §1

In the case of `CO/N=C(\C(=O)N[C@@H]1C(=O)N2C(C(=O)O)=C(COC(N)=O)CS[C@H]12)c1ccco1` [Cefuroxime], the MIC is 256 µg/mL in the assay on CA-MRSA USA400/MW2 (setting [5]); 1020 µg/mL in the assay on HA-MRSA USA200/EMRSA16 (setting [5]); ≥ 1020 µg/mL in the assay with HA-MRSA USA600 (setting [5]); 2 µg/mL in assay [1] (Staphylococcus aureus, Newman, cefuroxime alone, read-out: MIC cefuroxime); 512 µg/mL in the assay on CA-MRSA USA300 (CA-MRSA USA300 (Table 1), cefuroxime alone, read-out: MIC cefuroxime); 256 µg/mL with CA-MRSA USA300 (cefuroxime alone, CA-MRSA USA300 (Table 4), read-out: MIC Cefuroxime). Besides, the MIC in the assay with HA-MRSA USA500 (setting [5]) was 32 µg/mL; in the assay with HA-MRSA EMRSA15 (setting [5]), 512 µg/mL; in the assay on HA-MRSA [2] (Staphylococcus aureus, HA-MRSA (Table 1 r13, no further strain name), cefuroxime alone, read-out: MIC cefuroxime), > 2050 µg/mL; in the assay on HA-MRSA USA100/800/NY (setting [5]), 1020 µg/mL; in the assay on SA178R1 (setting [5]), 0.5 µg/mL; in the assay on HA-MRSA [3] (Staphylococcus aureus, HA-MRSA (Table 1 r10, no further strain name), cefuroxime alone, read-out: MIC cefuroxime) it was > 2050 µg/mL. Also, the MIC in the assay with HA-MRSA [4] (Staphylococcus aureus, HA-MRSA (Table 1 r16, no further strain name), cefuroxime alone, read-out: MIC cefuroxime) was found to be 2050 µg/mL. Besides, the FIC cefuroxime in the assay with CA-MRSA USA400/MW2 (in the presence of ticlopidine) turned out to be 0.063; in the assay on HA-MRSA USA200/EMRSA16 (in the presence of ticlopidine) it was 0.032; in the assay with HA-MRSA USA600 (in the presence of ticlopidine) it was 0.008; in assay [1] (Newman, in the presence of ticlopidine), 0.125; with CA-MRSA USA300 (CA-MRSA USA300 (Table 1), in the presence of ticlopidine), 0.032; with CA-MRSA USA300 (in the presence of clopidogrel, CA-MRSA USA300 (Table 4)), 0.063. Also, the “FIC cefuroxime” value is on record as 0.25 in the assay with CA-MRSA USA300 (in the presence of prasugrel, CA-MRSA USA300 (Table 4)); 0.03 with CA-MRSA USA300 (in the presence of ticlopidine, CA-MRSA USA300 (Table 4)); 1 with HA-MRSA USA500 (in the presence of ticlopidine); 0.063 in the assay with HA-MRSA EMRSA15 (in the presence of ticlopidine); 0.250 in the assay with HA-MRSA [2] (HA-MRSA (Table 1 r13), in the presence of ticlopidine); 0.125 with HA-MRSA USA100/800/NY (in the presence of ticlopidine). Besides, the FIC cefuroxime with SA178R1 (in the presence of ticlopidine) is on record as 1; with RN4220 it was 1; in the assay with HA-MRSA [3] (HA-MRSA (Table 1 r10), in the presence of ticlopidine) it was 0.250; in the assay on HA-MRSA [4] (HA-MRSA (Table 1 r16), in the presence of ticlopidine), 0.125. Also, the FIC index entry in [1] (antibiotic in combination with ticlopidine, S. aureus (Newman strain)) was “≦0.25”; in the assay on CA-MRSA USA300 (antibiotic in combination with ticlopidine, CA-MRSA USA 300, FIC (β-lactam)+FIC (ticlopidine)), “≦0.13”.

For the compound `Clc1ccccc1C[n+]1ccc2ccccc2c1` [Compound 8, 2-(2-Chloro-benzyl)-isoquinolinium], the “FIC index” value in the assay on MRSA is on record as “≦2”.

For the compound `Clc1ccccc1CN1CCCc2ccccc21` [Compound 9, 1-(2-Chloro-benzyl)-1,2,3,4-tetrahydro-quinoline], in the assay with MRSA, the “FIC index” value is listed as “≦0.187”.

Take `CCN1CCN(Cc2ccccc2Cl)CC1` [Compound 10, 1-(2-Chloro-benzyl)-4-ethyl-piperazine]: the “FIC index” value with MRSA is on record as “≦2”.

For the compound `Clc1ccccc1CN1CCCC1` [Compound 11, 1-(2-Chloro-benzyl)-pyrrolidine], in the assay on MRSA, the “FIC index” value is recorded as “≦2”.

For the compound `Clc1ccccc1CN1CCCCC1` [Compound 12, 1-(2-Chloro-benzyl)-piperidine], in the assay with MRSA, the “FIC index” value was “≦2”.

As to `Clc1ccccc1CN1CCC2CCCCC2C1` (stereo not drawn) [Compound 13, 2-(2-Chloro-benzyl)-decahydro-isoquinoline], the “FIC index” value with MRSA is “≦2”.

For `Cc1ccccc1CN1CCc2ccccc2C1` [Compound 14, 2-(2-Methyl-benzyl)-1,2,3,4-tetrahydro-isoquinoline], in the assay on MRSA, the “FIC index” value is reported as “≦0.125”.

For `Fc1ccccc1CN1CCc2ccccc2C1` [Compound 15, 2-(2-Fluoro-benzyl)-1,2,3,4-tetrahydro-isoquinoline], in the assay on MRSA, the “FIC index” value is listed as “≦0.187”.

For `O=[N+]([O-])c1ccccc1CN1CCc2ccccc2C1` [Compound 16, 2-(2-Nitro-benzyl)-1,2,3,4-tetrahydro-isoquinoline], the “FIC index” value in the assay with MRSA is given as “≦0.187”.

With `FC(F)(F)c1ccccc1CN1CCc2ccccc2C1` [Compound 17, 2-(2-Trifluoromethyl-benzyl)-1,2,3,4-tetrahydro-isoquinoline], the “FIC index” value in the assay with MRSA is given as “≦0.094”.

Consider `COC(=O)C(c1ccccc1Cl)N1CCc2ccccc2C1` (stereo not drawn) [Compound 18, (2-Chloro-phenyl)-(3,4-dihydro-1H-isoquinolin-2-yl)-acetic acid methyl ester], for which the “FIC index” value in the assay on MRSA is listed as “≦0.187”.

Take `COC(=O)[C@H](c1ccccc1Cl)N1CCc2sccc2C1` [Compound 19, (+)-(S)-methyl 2-(2-chlorophenyl)-2-(6,7-dihydrothieno[3,2-c]pyridin-5(4H)-yl)acetate]: in the assay with CA-MRSA USA300 (thienopyridine alone, CA-MRSA USA300 (Table 4), read-out: MIC thienopyridine), the MIC is > 128 µg/mL. The FIC thienopyridine with CA-MRSA USA300 (in the presence of cefuroxime, CA-MRSA USA300 (Table 4)) is 0.13. Also, the “FIC index” value in the assay with CA-MRSA USA300 (thienopyridine in combination with cefuroxime, CA-MRSA USA300 (Table 4), listed as Clopidogrel) is “≦0.20”; in the assay with CA-MRSA USA300 (thienopyridine in combination with cefuroxime, CA-MRSA USA300 (Table 4), listed as clopidogrel), ≤ 0.20; in the assay with MRSA, “≦0.187”.

Consider `O=C(O)C(c1ccccc1Cl)N1CCc2sccc2C1` (stereo not drawn) [Compound 20], for which the “FIC index” value in the assay with MRSA was “≦0.75”.

With `COC(=O)C(c1ccccc1C(F)(F)F)N1CCc2ccccc2C1` (stereo not drawn) [Compound 21], the “FIC index” value in the assay on MRSA is listed as “≦0.125”.

As to `NC(=O)C(c1ccccc1C(F)(F)F)N1CCc2ccccc2C1` (stereo not drawn) [Compound 22], the “FIC index” value in the assay with MRSA is recorded as “≦1”.

With `O=C(O)C(c1ccccc1C(F)(F)F)N1CCc2ccccc2C1` (stereo not drawn) [Compound 23], in the assay with MRSA, the “FIC index” value is “≦2”.
